# Laboratory results from US11369601B2, “Prophylactic or therapeutic agent for pulmonary hypertension comprising mebendazole and/or itraconazole or salt thereof” (TOHOKU UNIVERSITY, priority 2017, dated 2022).
# “Also recorded” adds a separate entry of the source.
# Experiments:
# [1] = Body weight of hypoxia-induced pulmonary hypertension mice; type: in vivo, mice (C57/BL6); conditions: for average body weight after the test: after 3 weeks hypoxia and once daily intravenous dosing, itraconazole 20 mg/kg/day, mebendazole 25 mg/kg/day
# Procedure: (§1) Hypoxia-induced pulmonary hypertension mice serving as a model generally used in an animal experiment for pulmonary hypertension were intravenously administered itraconazole or mebendazole. Specifically, first, 8-week-old male wild-type mice (C57/BL6 mice, n=10 per group) were housed in a transparent acrylic box with an oxygen concentration controlled to 10% using a hypoxia generator (Teijin Limited, Japan) under a 12 h light and dark cycle. The mice were stimulated by hypoxia for 3 weeks, and in this period, were intravenously injected with itraconazole (the following solution was used as itraconazole: 100 mg of itraconazole was dissolved in 6.7 ml of dimethyl sulfoxide, and the solution of itraconazole in dimethyl sulfoxide was mixed with ultrapure water (mQ or ultrapure water) to prepare a 100 ml solution) once daily at a dose of 20 mg/kg/day. As a Vihicle group, the following test was performed: the mice were stimulated by hypoxia in the same manner as described above except that the mice were intravenously injected with a 1:15 (V/V) mixed solution of dimethyl sulfoxide and ultrapure water in place of itraconazole as a diet. In addition, a mebendazole administration test for hypoxia-induced pulmonary hypertension mice was performed in the same manner as described above except that the mice were intravenously injected with mebendazole in place of itraconazole (the following solution was used as mebendazole: 100 mg of mebendazole was dissolved in 6.7 ml of dimethyl sulfoxide, and the solution of mebendazole in dimethyl sulfoxide was mixed with ultrapure water (mQ or ultrapure water) to prepare a 100 ml solution) at a dose of 25 mg/kg/day.
# After the hypoxic stimulation for 3 weeks, a 1.2-Fr catheter (SciSense Inc., Ontario, Canada) was inserted in the jugular vein of the mice under isoflurane anesthesia and advanced into the right ventricle to measure a right ventricular systolic pressure. […]
# [2] = test system: pulmonary artery smooth muscle cells; assay: Excessive proliferation of pulmonary artery smooth muscle cells (compound investigation); type: cell-based
# Description: Under such circumstances, the inventors of the present invention have investigated thousands of kinds of compounds. […] The present invention is based on such novel findings.
# [3] = test system: Hypoxia-induced pulmonary hypertension mice; assay: Hypoxia-induced pulmonary hypertension mice, right heart catheterization; type: in vivo, mice (C57/BL6); conditions: hypoxia (10% oxygen) 3 weeks, intravenous once daily, itraconazole 20 mg/kg/day, mebendazole 25 mg/kg/day, vs vehicle; for right ventricular systolic pressure: FIG. 1
# Procedure: as §1
# After the hypoxic stimulation for 3 weeks, a 1.2-Fr catheter (SciSense Inc., Ontario, Canada) was inserted in the jugular vein of the mice under isoflurane anesthesia and advanced into the right ventricle to measure a right ventricular systolic pressure. The average body weights of the Vehicle group, the itraconazole administration group, and the mebendazole administration group before the test were 16.3±0.2 g, 16.8±0.3 g, and 16.8.±0.3 g, respectively. In addition, the average body weights of the Vehicle group, the itraconazole administration group, and the mebendazole administration group after the test were 18.±0.2 g, 17.2±0.2 g, and 17.5±0.2 g, respectively.
# [4] = Body weight of rats with Sugen/hypoxia-induced PH; type: in vivo, rats (Sprague-Dawley); conditions: mebendazole 25 mg per kg intravenously once daily for 14 days, vs vehicle control
# Procedure: Rats (Sprague-Dawley, male, 6-week-old) were injected subcutaneously with a VEGF-receptor inhibitor SU5416 (Sigma-Aldrich) (20 mg per kg body weight) under isoflurane anesthesia and were then exposed to hypoxia (10% 02) for 3 weeks (hypoxia+SU5416). On day 21, the rats were randomized to be intravenously injected with mebendazole (25 mg per kg body weight) or vehicle (the rats were administered dimethyl sulfoxide in place of mebendazole solution) once daily under normoxia (21% O2) for 2 weeks. The vehicle administration group is expressed as vehicle control. […] On day 35, the rats were anesthetized with isoflurane (1.0%) to measure RVSP and RVH. Thus, the development of PH was assessed.
# [5] = test system: Sugen/hypoxia-induced hypertension rat model; assay: Sugen/hypoxia-induced pulmonary hypertension rat model, RVSP and RVH; type: in vivo, rats (Sprague-Dawley)
# Procedure: In this test, a vehicle treatment group was used as a control. A Sugen/hypoxia-induced hypertension rat model was used to assess pulmonary hypertension (PH) (Non-patent Literature 2). In order to assess the development of pulmonary hypertension, right ventricular systolic pressure (RVSP) and right ventricular hypertrophy (RVH) were measured (Non-patent Literatures 2 to 4).
# For right heart catheterization, a 1.4-F (for rats) pressure measurement catheter (Transonic Scisense) was inserted into the right jugular vein and advanced into the right ventricle to measure RVSP (Non-patent Literature 5).
# In the Sugen/hypoxia model, rats (Sprague-Dawley, male, 6-week-old) were injected subcutaneously with a VEGF-receptor inhibitor SU5416 (Sigma-Aldrich, St Louis, Mo.) (20 mg per kg body weight) under isoflurane anesthesia and were then exposed to hypoxia (10% O2) for 3 weeks. After the indicated period of treatment below, the rats were anesthetized with isoflurane (1.5%) to perform right heart catheterization. All data were analyzed using the PowerLab data acquisition system (AD Instruments, Bella Vista, Australia) and were averaged over 50 sequential beats (Non-patent Literatures 2 to 5).
# Hearts were dissected and the right ventricular free wall (RV) was removed from the left ventricle (LV) and septum. The ratio of right ventricular free wall (RV) weight to left ventricle plus septum (LV+Septum) weight [RV/(LV+S)] was measured to assess the extent of RVH (Non-patent Literature 2).
# Rats (Sprague-Dawley, male, 6-week-old) were injected subcutaneously with a VEGF-receptor inhibitor SU5416 (Sigma-Aldrich) (20 mg per kg body weight) under isoflurane anesthesia and were then exposed to hypoxia (10% 02) for 3 weeks (hypoxia+SU5416). On day 21, the rats were randomized to be intravenously injected with mebendazole (25 mg per kg body weight) or vehicle (the rats were administered dimethyl sulfoxide in place of mebendazole solution) once daily under normoxia (21% O2) for 2 weeks. The vehicle administration group is expressed as vehicle control. […] Thus, the development of PH was assessed.
# [6] = hypoxia+SU5416 3 weeks, then mebendazole 25 mg per kg intravenously once daily for 2 weeks under normoxia, day 35, vs vehicle control, FIG. 2
SMILES,average body weight after the test [1] [g],"average body weight before the test ([1]; before the test (baseline), mice n=10 per group) [g]",excessive proliferation of pulmonary artery smooth muscle cells [2],right ventricular hypertrophy [3],right ventricular systolic pressure [3],body weight [4],"PH in the animal model in vivo ([5]; Sugen/hypoxia rats, mebendazole 25 mg per kg intravenously once daily for 14 days)","right ventricular hypertrophy (RVH), RV/(LV+S) [5, 6]","right ventricular systolic pressure (RVSP) [5, 6]"
CCC(C)n1ncn(-c2ccc(N3CCN(c4ccc(OC[C@H]5CO[C@](Cn6cncn6)(c6ccc(Cl)cc6Cl)O5)cc4)CC3)cc2)c1=O (stereo partly shown) [itraconazole],17.2 ± 0.2,16.8 ± 0.3,suppresses excessive proliferation,Significant reductions,Significant reductions,–,–,–,–
"COC(=O)Nc1nc2ccc(C(=O)c3ccccc3)cc2[nH]1 [mebendazole, methyl (5-benzoyl-1H-benzo[d]imidazol-2-yl)carbamate]",17.5 ± 0.2,–,suppresses excessive proliferation,Significant reductions,Significant reductions,no significant difference; also recorded: no influence,ameliorated,reduced,reduced
